Experimental findings from patent publication EP0647618A1, “NEW NON IONIC IODINE-CONTAINING DIMERS USEFUL AS X-RAY CONTRAST AGENTS, METHOD FOR THE PREPARATION THEREOF, AND GALENICAL COMPOSITIONS CONTAINING THEM” (CENTRO INVESTIGACION JUSTESA IMAGEN S.A., priority 1993, dated 1994) are described below.

What all share (type): physicochemical
A short description of series [1]: Osmolality of aqueous solution at 300 mg I/ml. Particulars: 300 mg I/ml (Table II).
Series [2] in a line: Viscosity of aqueous solution at 300 mg I/ml. Particulars: 300 mg I/ml (Table II).
The next series in a line: physchem. As to conditions: water, 20°C (Table II); read-out: SOLUBILITY IN WATER at 20°. On the procedure: On the other hand, radiologists need compounds with a wide range of uses: for example, angiography, urography, myelography, cisternography, lymphography, cardiography and gastrography. The products according to this invention fulfil the requirements for the above uses, as they have high water solubility, normally higher than 60% (w/v), which, in some cases, is as high as 100% at 20°C, without showing any tendency to crystallize. They also have a very low general toxicity, stated as the average lethal dose for the rat, DL₅₀.

Usually solubility stands for how much of the substance goes into solution per volume. In the case of `O=C(CN(CC(=O)Nc1c(I)c(C(=O)NCC(O)CO)c(I)c(C(=O)NCC(O)CO)c1I)CC(O)CO)Nc1c(I)c(C(=O)NCC(O)CO)c(I)c(C(=O)NCC(O)CO)c1I` (stereo not shown) [ICJ-1092, N,N'-Bis-{3,5-bis-[N-(2,3-dihydroxypropyl)carbamoyl]-2,4,6-triiodophenyl}-3-(2,3-dihydroxypropyl)-3-azapentanediamide], the “OSMOLALITY mOsm/kg at 300 mg I/ml” value in series [1] worked out at 193 mOsm/kg. For the same compound, in series [2], the “VISCOSITY mPas (37°C) at 300 mg I/ml” value stood at 10.3 mPas. The solubility in “physchem” is more than 600 mg/mL.

On to `O=C(CN(CCO)CC(=O)Nc1c(I)c(C(=O)NCC(O)CO)c(I)c(C(=O)NCC(O)CO)c1I)Nc1c(I)c(C(=O)NCCO)c(I)c(C(=O)NCCO)c1I` (stereo not shown) [ICJ-1292, N-{3,5-Bis-[N-(2,3-dihydroxypropyl)carbamoyl]-2,4,6-triiodophenyl}-N'-{3,5-bis-[N-(2-hydroxyethyl)carbamoyl]-2,4,6-triiodophenyl}-3-(2-hydroxyethyl)-3-azapentanediamide], for which the solubility in “physchem” was less than 600 mg/mL.

In the case of `O=C(CN(CCO)CC(=O)Nc1c(I)c(C(=O)NCCO)c(I)c(C(=O)NCCO)c1I)Nc1c(I)c(C(=O)NCCO)c(I)c(C(=O)NCCO)c1I` [ICJ-1392, N,N'-Bis-{3,5-bis-[N-(2-hydroxyethyl)carbamoyl]-2,4,6-triiodophenyl}-3-(2-hydroxyethyl)-3-azapentanedimide], the solubility in the series “physchem” was less than 600 mg/mL.

Turning to `O=C(CN(CC(=O)Nc1c(I)c(C(=O)NCC(O)CO)c(I)c(C(=O)NCC(O)CO)c1I)CC(O)CO)Nc1c(I)c(C(=O)NCCO)c(I)c(C(=O)NCCO)c1I` (stereo not shown) [ICJ-1492, N-{3,5-bis-[N-(2,3-dihydroxypropyl)carbamoyl]-2,4,6-triiodophenyl}-N'-{3,5-bis-[N-(2-hydroxyethyl)carbamoyl]-2,4,6-triiodophenyl)-3-(2,3-dihydroxypropyl)-3-azapentanediamide], the “OSMOLALITY mOsm/kg at 300 mg I/ml” value in series [1] is 137 mOsm/kg. Moreover, in series [2], the “VISCOSITY mPas (37°C) at 300 mg I/ml” value was found to be 9.5 mPas. The solubility in the series “physchem” is less than 600 mg/mL.

Regarding `CN(C(=O)CN(CCO)CC(=O)Nc1c(I)c(C(=O)NCC(O)CO)c(I)c(C(=O)NCC(O)CO)c1I)c1c(I)c(C(=O)NCCO)c(I)c(C(=O)NCCO)c1I` (stereo not shown) [ICJ-2192, N-{3,5-Bis-[N-(2,3-dihydroxpropyl)carbamoyl]-2,4,6-triiodophenyl}-N'-methyl-N'-{3,5-bis-[N-(2-hydroxyethyl)carbamoyl]-2,4,6-triiodophenyl}-3-(2-hydroxyethyl)-3-azapentanediamide], in the series “physchem”, the solubility was less than 600 mg/mL.

For the compound `CN(C(=O)CN(CCO)CC(=O)N(C)c1c(I)c(C(=O)NCCO)c(I)c(C(=O)NCCO)c1I)c1c(I)c(C(=O)NCCO)c(I)c(C(=O)NCCO)c1I` [ICJ-2392, N,N'-Bis-{3,5-bis-[N-(2-hydroxethyl)carbamoyl]-2,4,6-triiodophenyl}-N,N'-dimethyl-3-(2-hydroxyethyl)-3-azapentanedimide], in the series “physchem”, the solubility was less than 600 mg/mL.

Take `CN(C(=O)CN(CCO)CC(=O)Nc1c(I)c(C(=O)NCCO)c(I)c(C(=O)NCCO)c1I)c1c(I)c(C(=O)NCC(O)CO)c(I)c(C(=O)NCC(O)CO)c1I` (stereo not shown) [ICJ-2492, N-{3,5-Bis-[N-(2,3-dihydroxpropyl)carbamoyl]-2,4,6-triiodophenyl}-N-methyl-N'-{3,5-bis-[N-(2-hydroxyethyl)carbamoyl]-2,4,6-triiodophenyl}-3-(2-hydroxyethyl)-3-azapentanediamide]: in “physchem”, the solubility was less than 600 mg/mL.

For `CN(CC(=O)Nc1c(I)c(C(=O)NCC(O)CO)c(I)c(C(=O)NCC(O)CO)c1I)CC(=O)Nc1c(I)c(C(=O)NCC(O)CO)c(I)c(C(=O)NCC(O)CO)c1I` (stereo not shown) [ICJ-2792, N,N'-Bis-{3,5-bis-[N-(2,3-dihydroxypropyl)carbamoyl]-2,4,6-triiodophenyl}-3-methyl-3-azapentanediamide], the solubility in “physchem” was less than 600 mg/mL.

With `CN(CC(=O)N(C)c1c(I)c(C(=O)NCC(O)CO)c(I)c(C(=O)NCC(O)CO)c1I)CC(=O)N(C)c1c(I)c(C(=O)NCC(O)CO)c(I)c(C(=O)NCC(O)CO)c1I` (stereo not shown) [ICJ-2992, N,N'-Bis-{3,5-bis-[N-(2,3-dihydroxypropyl)carbamoyl]-2,4,6-triiodophenyl}-N,N'-dimethyl-3-methyl-3-azapentanediamide], the solubility in “physchem” is more than 600 mg/mL.
